# Assay results as given in patent EP0994713B1, “USE OF A 7alpha-METHYL-17alpha-ETHYNYL-ESTRANE DERIVATIVE FOR THE TREATMENT OF ATHEROSCLEROSIS” (Akzo Nobel N.V., priority 1997, dated 1998).
# Assays:
# Type in all cases: in vivo, New Zealand White rabbits
# [1] = Body weight at necropsy, cholesterol fed rabbit model; details: cholesterol diet, OVX, necropsy at 20 weeks
# Experimental: (§1) The model is considered relevant to the human atherosclerotic process, because the cellular events occurring during the development of the atherosclerotic lesions during the atherogenic diet are similar to those observed in different stages of atherosclerotic processes in coronary arteries.
# (§2) An experiment was performed with 7 groups of sexually mature, virgin female New Zealand White rabbits (Harlan, Zeist, The Netherlands), age 7-9 months and weighing approximately 3 kg (number of […] per group: 13-14). During the acclimatization period the rabbits were fed a diet of standard commercial rabbit chow LKK20 (Hope Farms, Woerden, The Netherlands). Three weeks prior to the start of the experiment the animals were anaesthetized and underwent bilateral ovariectomy (OVX) or were sham operated. After three weeks, at the start of the experiment, the rabbits were randomized over the treatment groups. In all animals de-endothelialisation of a segment of the left carotid artery was applied by using the air-drying technique (Fishman, J.A. et al., "Endothelial regeneration in the rat carotid artery and the significance of endothelial denudation in the pathogenesis of myointimal thickening", Lab. Invest. 1975, 32, 339-351; and Lafont, A. et al., "Restenosis and experimental angioplasty: Intimal, medial and adventitial changes associated with constructive remodeling", Circulation Research, 1995, 76, 996-1002)
# (§3) The animals were randomly allocated into 7 experimental groups using a randomized block design. The groups were fed an atherogenic diet (commercial rabbit chow (LKK20) enriched with 0.4 grams cholesterol, 3.75 grams coconut oil and 3.75 grams peanut oil per 100 grams). One group was fed the standard rabbit chow (LKK20). Food intake was restricted to 80 grams daily.
# (§4) The treatments (Table I) were daily administered orally as a tablet, prepared as in Example 1. Groups 1, 2 and 3 were on a daily placebo treatment. Groups 4-5 were treated with 7α-methyl-17α-ethynyl-17β-hydroxy-estra-5(10)-en-3-one (OD-14; tibolone; 6 or 2 mg daily); group 6 with 17β-estradiol (4 mg daily). Group 7 was on treatment with 17β-estradiol decanoate (150 µg in 1 ml arachis oil injected subcutaneously once a week).
# (§5) During the experiment blood samples were drawn out of the central ear artery after sedation with Hypnorm (0.1 ml i.m.) (Janssen Pharmaceutics, Beerse, Belgium) before the daily treatment, at week 4,8,12,16 and 20, to monitor the plasma cholesterol levels and to measure, at week 17, plasma estradiol levels and plasma tibolone levels. Twenty weeks after the start of the experiment animals were anaesthetized by an i.m. injection of Hypnorm (0.5 ml/kg). After blood sampling the rabbits were killed by exsanguination and the aortic arch, uterus and carotid artery removed for further analyses.
# In addition to example 2 an additional experiment was performed with two lower doses of Org OD14 and a higher dose of estradiol decanoate. […] The procedures were identical to those in example 2.
# Three weeks prior to the start of the experiment the animals were ovariectomized. At the start of the experiment the carotid artery was de-endothelialised using the air-drying technique. The normal rabbit chow was replaced by the atherogenic diet except for the control group which received during the experiment the normal rabbit chow.
# The treatments (table II) of group 1, 2, 3 and 4 were daily administered orally as a tablet, prepared as in example 1. The doses of Org OD14 per tablet, however, were 0.6 mg and 0.15 mg respectively. Group 5 was on treatment with 17β-estradiol decanoate (300 µg in 1 ml arachis oil injected subcutaneously once a week). Twenty weeks after the start of the experiment was ended in the same manner as described in example 2.
# After 20 weeks of diet and of daily treatment, necropsy was performed to determine the accumulation of cholesterol and fatty streaks in the aortic arch and the advanced lesions in the carotid artery. […]
# [2] = system: female ovariectomized rabbits; assay: Intimal thickening (advanced lesions) in carotid artery after de-endothelialisation; details: for Advanced lesions in carotid artery: intimal surface: cholesterol diet, OVX, necropsy at 20 weeks
# Experimental: as §1, §2, §3, §4
# During the experiment blood samples were drawn out of the central ear artery after sedation with Hypnorm (0.1 ml i.m.) (Janssen Pharmaceutics, Beerse, Belgium) before the daily treatment, at week 4,8,12,16 and 20, to monitor the plasma cholesterol levels and to measure, at week 17, plasma estradiol levels and plasma tibolone levels. Twenty weeks after the start of the experiment animals were anaesthetized by an i.m. injection of Hypnorm (0.5 ml/kg). After blood sampling the rabbits were killed by exsanguination and the aortic arch, uterus and carotid artery removed for further analyses. […]
# The left (airdried) carotid artery was dissected and fixed in 2% paraformaldehyde containing 6.8% glucose. The right carotid artery was used as comparison. After fixation the tissue was divided in blocks with a length of 2 mm and embedded in paraffin (Paraplast plus®, Sherwood Medical Co, St. Louis, USA) using an automated tissue processor (Hypercenter XP, Shandon).
# To measure intimal thickening (using image analysis) a specific staining method and a belonging image analysis application have been developed.
# Measurements were performed on 2 µm transverse sections which were treated with elastase (Serva Feinbiochemica Gmbh, Heidelberg, Germany) prior to elastin staining with Lawson solution (Boom, Meppel, the Netherlands) and light green (Sigma). Subsequently sections were airdried and mounted in Pertex (Leica Gmbh, Nussloch, Germany).
# For morphological study both methylene blue/Azur II and hemotoxylin/eosin stained (2 µm) transverse sections were used. Smooth muscle cells and macrophages were detected with respectively α-actin antibodies (Sigma) and anti-macrophage antibodies (RAM11, DAKO, Glostrup, Denmark). […]
# [3] = Plasma estradiol and plasma tibolone levels at week 17; details: rabbit, 6 mg per day
# Experimental: as §5
# The plasma levels indicate that both modes of administration of estradiol lead to effective plasma levels. Using the human doses of estradiol and Org OD14 used for HRT treatment and corrected for the caloric intake it was expected that in the rabbit an oral dose of 4 mg estradiol is about equipotent with 6 mg Org OD14.
# [4] = Example 2, Group 4: 6 mg orally daily
# [5] = Example 2, Group 5: 2 mg orally daily
# [6] = Example 3: 0.15 mg orally once daily
# [7] = Example 3: 0.6 mg orally once daily
smiles,measurement,setting,value
"C#C[C@]1(O)CC[C@H]2[C@@H]3[C@H](C)CC4=C(CCC(=O)C4)[C@H]3CC[C@@]21C [Org OD14, 7α-methyl-17α-ethynyl-17β-hydroxy-estra-5(10)-en-3-one]",Body weight,[1]; [4],2758 ± 41 grams
same,Body weight,[1]; [5],2815 ± 50 grams
same,Body weight,[1]; [6],2850 ± 42 grams
same,Body weight,[1]; [7],3008 ± 58 grams
same,Advanced lesions in carotid artery: intimal surface,[2]; [4],0.13 ± 0.03 * mm^2
same,Advanced lesions in carotid artery: intimal surface,[2]; [5],0.14 ± 0.02 * mm^2
same,Histology of the lesions,"[2]; Example 2, carotid artery, placebo on cholesterol diet: smooth muscle cells and foam cells",the lesions consisted only of smooth muscle cells
same,advanced lesion formation following mechanical de-endothelisation (in words),"[2]; Example 2: Org OD14 2 and 6 mg, E2 4 mg orally daily, E2D 150 µg s.c. weekly",strongly inhibited the formation of advanced lesions
same,Advanced lesions in carotid artery: intimal surface,[2]; [6],0.24 ± 0.05 mm^2
same,Advanced lesions in carotid artery: intimal surface,[2]; [7],0.14 ± 0.01 * mm^2
same,plasma concentrations of Org OD14,[3],comparable to those obtained in women with the clinical dose of 2.5 mg
